By EC50 is commonly meant the concentration at which the effect is half-maximal.

In the experiment the test system is FADD-deficient Jurkat cells. In words: necroptosis assay: FADD-deficient Jurkat cells treated with TNFα, cell viability. The format is cell-based, human. The conditions noted are these: for activity in the necroptosis assay, in words / Max Prot: FADD-deficient Jurkat cells treated with TNFα; for EC50: effective concentration for half-maximum response, inhibition of necroptosis in FADD-deficient Jurkat cells treated with TNFα; for Max Prot: max viability obtained in the presence of a compound. The source says: Herein we describe the structure activity analysis of Nec-5 analogs.

Entries after “also recorded” stand apart in the source; their conditions may differ. Like-named read-outs stand apart in the source and are kept apart here.

As for `COc1ccc(-n2c(SC[N+](=O)[O-])nc3sc4c(c3c2=O)CCCC4)cc1` [Compound 26], the “activity in the necroptosis assay, in words” value (shortened to “activity”) is on record as “completely destroyed the activity” and the EC50 entry was “inactive”. Consider `N#CCSc1nc2sc3c(c2c(=O)n1-c1ccc(OCc2ccccc2)cc1)CCCC3` [Compound 36], for which the EC50 entry was “inactive”. Turning to `COc1ccc(-n2c(SCC(C)=O)nc3sc4c(c3c2=O)CCC4)cc1` [Compound 101], the EC50 result is “inactive”. On the same count and under the same terms, to `CCOc1ccc(-n2c(SCC#N)nc3sc4c(c3c2=O)CCC4)cc1` [Compound 164] belongs “inactive”; to `COc1ccc(-n2c(SCc3ccc(C)cc3)nc3sc4c(c3c2=O)CCCC4)cc1` [Compound 15], “inactive”; to `CCc1sc2nc(SCCO)n(-c3ccc(OC)cc3)c(=O)c2c1C` [Compound 115], “inactive”.

For the compound `N#CCSc1nc2sc3ccccc3c2c(=O)n1-c1ccc(OC(F)(F)F)cc1` [Compound 147], the EC50 entry is “inactive”. As to `CCN1CCc2c(sc3nc(SC)n(-c4ccccc4)c(=O)c23)C1` [Compound 181], the EC50 entry was “inactive”. With `CCCSc1nc2sc3c(c2c(=O)n1-c1ccc(OC)cc1)CCCC3` [Compound 8], the EC50 entry is “inactive”. For the compound `COc1ccc(-n2c(SCC#N)nc3sc(C)c(C)c3c2=O)cc1` [Compound 67], the “activity” value is reported as “a high degree of activity is retained; also recorded: showed substantial activity; also recorded: showed significant higher activity compared to compound (154)” and the “Max Prot” value is recorded as 100%. In addition, where the note is “read-out: EC50”, the EC50 was 0.45 µM. On to `CCCCCCCCCCCCCCc1sc2nc(SC)n(-c3ccc(OC)cc3)c(=O)c2c1C` [Compound 86], for which the EC50 entry is “inactive”. As to `CCSc1nc2sc(CC)c(C)c2c(=O)n1-c1ccc(OC)cc1` [Compound 111], the EC50 entry is “inactive”. Turning to `CCCc1sc2nc(SC)n(-c3ccc(OC)cc3)c(=O)c2c1C` [Compound 84], the EC50 result was “inactive”.

In the case of `COc1ccc(-n2c(SCC#N)nc3sc4c(c3c2=O)CCC4)cc1OC` [Compound 169], the EC50 result was “inactive”. `N#CCSc1nc2sc3c(c2c(=O)n1-c1cccc(Cl)c1)CCCC3` [Compound 40]: the “Max Prot” value was determined as 66.9%. Under “read-out: EC50”, the EC50 was 5.1 µM.

Regarding `Cc1cc(Cl)ccc1-n1c(SCC#N)nc2sc3c(c2c1=O)CCCC3` [Compound 50], the EC50 result was “inactive”. Regarding `Cc1sc2nc(SCC#N)n(-c3ccc(N(C)C)cc3)c(=O)c2c1C` [Compound 157], the EC50 entry was “inactive”. On to `Cc1ccccc1-n1c(SCC#N)nc2sc3c(c2c1=O)CCCC3` [Compound 37], for which the 50% effective concentration (EC50) result was “inactive”. On to `CCN1CCc2c(sc3nc(SCC#N)n(-c4ccc(OC)cc4)c(=O)c23)C1` [Compound 77], for which the “activity” value is “essentially inactive” and the EC50 entry is “inactive”.

Regarding `CCN1CCc2c(sc3nc(SC)n(-c4ccc(OC)cc4)c(=O)c23)C1` [Compound 91], the EC50 entry is “inactive”. Same read-out and setting: to `CSc1nc2sc(C)c(C)c2c(=O)n1-c1ccc(N(C)C)cc1` [Compound 161] belongs “inactive”. On the same count and under the same terms, to `N#CCSc1nc2sc3c(c2c(=O)n1-c1ccccc1)CCCCC3` [Compound 165] belongs “inactive”. Regarding `N#CCSc1nc2sc3c(c2c(=O)n1-c1ccc2c(c1)OCCO2)CCC3` [Compound 133], the “Max Prot” value came out at 100%. The EC50 (read-out: EC50) turned out to be 0.25 µM. Consider `CSc1nc2sc3c(c2c(=O)n1-c1ccc(Cl)c(Cl)c1)CCCC3` [Compound 56], for which the EC50 entry is “inactive”. As to `CCCc1sc2nc(SCC#N)n(-c3ccc(OC)cc3)c(=O)c2c1C` [Compound 69], the “activity” value is “inactive” and the EC50 entry is “inactive”. In the case of `COc1ccc(-n2c(SCC#N)nc3sc4c(c3c2=O)CCCCC4)cc1` [Compound 74], the “activity” value is “less active; also recorded: exhibited a certain degree of activity” and the “Max Prot” value was found to be 83%. The EC50 (read-out: EC50) is 0.96 µM. For `CCOc1ccc(-n2c(SC)nc3sc4ccccc4c3c2=O)cc1` [Compound 151], the EC50 entry was “inactive”.

Turning to `COc1ccc(-n2c(SC)nc3sc4c(c3c2=O)CCCC4)c(OC)c1` [Compound 57], the EC50 entry was “inactive”. Take `N#CCSc1nc2sc3c(c2c(=O)n1-c1ccc(OC(F)(F)F)cc1)CCCC3` [Compound 51]: the “activity” value is given as “loss of activity” and the half-maximal effective concentration (EC50) entry is “inactive”. With `COc1ccc(CSc2nc3sc4c(c3c(=O)n2-c2ccc(OC)cc2)CCCC4)cc1` [Compound 16], the EC50 result is “inactive”.

In the case of `CCOc1ccc(-n2c(SCC#N)nc3sc(C)c(C)c3c2=O)cc1` [Compound 154], the “Max Prot” value amounted to 97%. Further, the EC50 (read-out: EC50) came to 7.77 µM. Consider `C#CCSc1nc2sccc2c(=O)n1-c1ccc(OC)cc1` [Compound 104], for which the EC50 entry is “inactive”. As to `COc1ccc(-n2c(SC)nc3sc4c(c3c2=O)CCC(C)C4)cc1OC` (stereo not shown) [Compound 174], the EC50 entry is “inactive”.

In the case of `CSc1nc2sc3c(c2c(=O)n1-c1ccc(Cl)cc1C)CCCC3` [Compound 61], the EC50 entry is “inactive”. `COc1ccc(-n2c(SC)nc3scc(C)c3c2=O)cc1` [Compound 80]: the EC50 result was “inactive”.

Take `CCCSc1nc2sc3c(c2c(=O)n1-c1ccc(OC)cc1)CCC3` [Compound 94]: the EC50 entry was “inactive”. For the compound `CSc1nc2sc(C)c(C)c2c(=O)n1-c1ccc(C)c(C)c1` [Compound 140], the EC50 result is “inactive”. Regarding `Cc1ccc(-n2c(SCC#N)nc3sc4c(c3c2=O)CCCC4)cc1C` [Compound 43], the “Max Prot” value stood at 45.0%. Further, the EC50 (read-out: EC50) stood at 16.7 µM.

For `Cc1ccc(-n2c(SCC#N)nc3sc4c(c3c2=O)CCCC4)cc1` [Compound 38], the “activity” value was “retained some activity” and the “Max Prot” value was 48.6%. For the same compound, the EC50 (read-out: EC50) came to 1.8 µM. For `CCCc1sc2nc(SCC)n(-c3ccc(OC)cc3)c(=O)c2c1C` [Compound 117], the EC50 result was “inactive”. For `N#CCSc1nc2sc3c(c2c(=O)n1-c1ccc(F)c(F)c1)CCCC3` [Compound 45], the EC50 result was “inactive”. As for `COc1ccccc1-n1c(SCC#N)nc2sc3c(c2c1=O)CCCC3` [Compound 33], the “Max Prot” value turned out to be 51.2%. The EC50 (read-out: EC50) is 17.8 µM. Regarding `COc1ccc(-n2c(SCc3ccccc3)nc3sc4c(c3c2=O)CCC4)cc1` [Compound 99], the EC50 entry was “inactive”. Consider `CCSc1nc2sc3c(c2c(=O)n1-c1ccc(OC)cc1)CCC3` [Compound 93], for which the EC50 result was “inactive”.

`CCOc1ccc(-n2c(SC)nc3sc(C)c(C)c3c2=O)cc1` [Compound 158]: the EC50 result was “inactive”. With `COc1ccc(-n2c(SCCC#N)nc3sc4c(c3c2=O)CCCC4)cc1` [Compound 24], the “activity” value was “retained some activity” and the “Max Prot” value is given as 70%. Moreover, the concentration for a half-maximal effect (EC50) (read-out: EC50) turned out to be 5.28 µM. With `N#CCSc1nc2sc3ccccc3c2c(=O)n1-c1ccc(F)cc1` [Compound 144], the EC50 (read-out: EC50) came to 3.06 µM. As to `COc1ccc(-n2c(SCC#N)nc3sc4c(c3c2=O)CCC4)cc1` [Compound 73], the “activity” value is recorded as “retained most of the activity; also recorded: showed activity; also recorded: exhibited a certain degree of activity” and the “Max Prot” value was 100%. Under “read-out: EC50”, the EC50 stood at 0.45 µM.

For the compound `COc1ccc(-n2c(SCc3ccc([N+](=O)[O-])cc3)nc3sc4c(c3c2=O)CCC4)cc1` [Compound 100], the half-maximal effective concentration (EC50) result is “inactive”. Consider `C#CCSc1nc2sc(C)c(C)c2c(=O)n1-c1ccc(OC)cc1` [Compound 106], for which the “activity” value is reported as “possess some activity” and the “Max Prot” value is on record as 90.3%. Further, the EC50 (read-out: EC50) amounted to 4.86 µM.

In the case of `Cc1sc2nc(SCC#N)n(-c3ccc4c(c3)OCCO4)c(=O)c2c1C` [Compound 136], the “Max Prot” value is recorded as 100%. The EC50 (read-out: EC50) turned out to be 0.25 µM. As to `CSc1nc2sccc2c(=O)n1-c1ccccc1` [Compound 173], the EC50 result is “inactive”. With `CCOc1ccc(-n2c(SCC#N)nc3sc4ccccc4c3c2=O)cc1` [Compound 145], the EC50 entry is “inactive”. As for `COc1ccc(-n2c(SCc3ccccc3)nc3sc4c(c3c2=O)CCCC4)cc1` [Compound 14], the “activity” value is on record as “completely destroyed the activity” and the EC50 result was “inactive”. As to `COc1ccc(-n2c(SC)nc3sc4c(c3c2=O)CCCCC4)cc1` [Compound 88], the “activity” value was “lack of activity” and the EC50 entry was “inactive”. As to `CSc1nc2sc3ccccc3c2c(=O)n1-c1ccc(F)cc1` [Compound 150], the EC50 (read-out: EC50) was found to be 3.06 µM. For the compound `CCCCCSc1nc2sc3c(c2c(=O)n1-c1ccc(OC)cc1)CCCC3` [Compound 10], the concentration giving a half-maximal response (EC50) entry is “inactive”. With `CCc1c(C)sc2nc(SCC#N)n(-c3ccc(OC)cc3)c(=O)c12` [Compound 72], the “activity” value is on record as “preserved activity to a significant extent” and the “Max Prot” value came to 100%. Besides, the EC50 (read-out: EC50) came to 1.08 µM.

As to `C#CCSc1nc2sc3c(c2c(=O)n1-c1ccc(OC)cc1)CCCC3` [Compound 13], the “activity” value is “exhibited some activity” and the “Max Prot” value was found to be 80.7%. Besides, the concentration giving a half-maximal response (EC50) (read-out: EC50) amounted to 6.08 µM. In the case of `CSc1cccc(-n2c(SC)nc3sc4c(c3c2=O)CCCC4)c1` [Compound 60], the EC50 entry is “inactive”. Consider `N#CCSc1nc2sc3c(c2c(=O)n1-c1ccccc1)CCCC3` [Compound 32], for which the “activity” value was “inactive” and the EC50 entry is “inactive”. Regarding `CCCC(=O)Sc1nc2sc3c(c2c(=O)n1-c1ccc(OC)cc1)CCCC3` [Compound 22], the EC50 entry was “inactive”.

Values taken from US20140024662A1, “COMPOUNDS, SCREENS, AND METHODS OF TREATMENT” (Shanghai Institute of Organic Chemistry, priority 2006, published 2014).
